Assay results from patent US11034980B2, “Microbial engineering for the production of isoprenoids” (Massachusetts Institute of Technology, priority 2018, dated 2021).
Read-outs that look alike come from different tables or passages of the source. Values belong to the molecule of their own block, whether it stands above or below them.

Experiments:
[1] = system: multi-enzyme system (CK, IPK, IDI, IspA, GGPPS, TDS); assay: Titration of cofactors and potential inhibitors in the taxadiene multi-enzyme system; format: biochemical
Method: The multi-enzyme system reactions were carried out in 50 mM ammonium bicarbonate (pH 7.4) with 10 mM MgCl2, 2 mM MnCl2, 0.05% (w/v) Tween 20, 10 mM ATP, and 5 mM isoprenol at 30° C. unless otherwise stated. The solution in glass GC vials (Agilent) were overlaid with 1/10 volume of dodecane to entrap the volatile isoprenoids. An initial estimated optimal concentration of each enzyme was calculated using the rates determined by individual enzyme assays. The final optimized enzyme concentrations were determined to be 25 μg/mL CK, 15 μg/mL IPK, 25.4 μg/mL IDI, 37.15 μg/mL IspA, 8.15 μg/mL GGPPS, and 25 μg/mL for TDS.
A possible explanation for such inhibitions could be that the enzymes would salt out when a combined amount of >20 mM ATP+ADP (sodium salts) are added to the mixture. […] Since 8 moles of ATP are necessary for the synthesis of 1 mole of taxadiene, salting out of proteins by high concentrations of ATP sodium salt limits that maximum titer of taxadiene that can be achieved using this system making ATP the limiting reagent. […] Furthermore, the consumption of isoprenol in this process could not be determined due to the high variability the utilized GC-FID assay which could not accurately measure such small changes in isoprenol concentration.

[2] = target: Farnesyl pyrophosphate synthase (IspA) (Escherichia coli, UniProt P22939); conditions: cited from earlier work; for Km: Ref Ku et al., 2005, Weaver et al., 2015
Sequence of Farnesyl pyrophosphate synthase (IspA) (P22939 whole entry): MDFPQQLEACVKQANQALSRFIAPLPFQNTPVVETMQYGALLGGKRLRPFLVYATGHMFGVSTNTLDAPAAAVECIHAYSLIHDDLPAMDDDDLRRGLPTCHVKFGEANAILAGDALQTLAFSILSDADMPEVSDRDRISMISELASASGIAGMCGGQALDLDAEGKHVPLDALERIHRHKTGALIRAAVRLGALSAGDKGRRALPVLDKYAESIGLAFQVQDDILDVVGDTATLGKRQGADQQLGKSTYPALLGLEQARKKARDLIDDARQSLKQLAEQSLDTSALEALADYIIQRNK

[3] = target: T1, isopentenyl phosphate kinase (IPK) (Arabidopsis thaliana, UniProt Q8H1F7); assay: IPK kinetics by ATP consumption, PK-LDH coupled NADH assay; format: biochemical; conditions: 10 mM ATP, 30° C., pH 7.4
T1 construct: Arabidopsis thaliana (AAN12957.1), codon optimized; made in house; host or cells: E. coli BL21 (DE3)
T1 sequence (Q8H1F7 1-332): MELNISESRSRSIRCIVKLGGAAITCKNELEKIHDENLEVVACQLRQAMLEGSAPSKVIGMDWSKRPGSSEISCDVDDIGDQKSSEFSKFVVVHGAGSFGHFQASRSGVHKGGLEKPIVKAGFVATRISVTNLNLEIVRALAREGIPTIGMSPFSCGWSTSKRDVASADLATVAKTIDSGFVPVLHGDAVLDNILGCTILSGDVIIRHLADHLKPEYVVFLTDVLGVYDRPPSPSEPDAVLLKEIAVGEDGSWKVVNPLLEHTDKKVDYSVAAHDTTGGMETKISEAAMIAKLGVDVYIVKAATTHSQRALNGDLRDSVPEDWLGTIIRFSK
Method: A single colony from each strain containing one plasmid for the expression of a single enzyme was inoculated into 5 mL of sterile LB media (BD Sciences) with kanamycin and grown overnight at 37° C. One milliliter was then inoculated into a 1 L flask containing 200 mL of sterile SOB media (AMERSCO) with kanamycin. The culture was grown at 30° C. until an optical density (OD) of 0.4-0.6 (λ=600 nm). At this point protein production was induced by the addition of IPTG for a final concentration of 0.1 mM and continued at 30° C. for 3 h. Cells were harvested by centrifugation at 3750 rpm in an Allegra X12R centrifuge (Beckman-Coulter). The supernatant was removed and the cell pellets were frozen at −20° C. until purification. Proteins were visualized by SDS-PAGE performed accordingly to the manufacturer's guidelines (Bio-rad). Gradient (4-20%) gels were purchased from Biorad, as were the Kaleidoscope pre-stained protein ladder, Laemmli 4× sample buffer, Tris-glycine-SDS buffer, and mini-protean electrophoresis chambers. Gels were stained using Instant-Blue (Expedeon). Protein concentrations were very roughly estimated from the gel using Image J (NIH) in order to determine an appropriate amount of resin for purification. Protein Purification All purification steps were performed in a single day on ice and in a cold room when possible. Cell pellets were thawed and resuspended in 30 mL of NPI-10 buffer (50 mM NaH2PO4, 300 mM NaCl, 10 mM imidazole, pH 8.0) and supplemented with 0.5 mM PMSF immediately prior to cell lysis. Cells were lysed by 2-3 passages through an EmulsiFlex-C5 high-pressure homogenizer (Avestin). Lysates were then centrifuged at 4 C for 15 min to remove cellular debris. The clarified lysate was loaded onto a Ni-NTA resin (Gold Bio, capacity 50 mg/mL) which was housed in a gravity column (Thermofisher) and was pre-equilibrated with 10 column volumes (CV) of NPI-10 buffer. The column was then washed with 10 CV of NPI-20 buffer (20 mM imidazole). The enzyme was then eluted from the column by 3 CV using NPI-250 buffer (250 mM imidazole). Enzymes were then exchanged into 50 mM Tris-HCl pH 7.5 using 10 kDa Microseps (Millipore) by centrifugation and repeated buffer exchanges until the imidazole was calculated to be under 1 mM. […] Enzyme concentration was determined using a bicinchoninic acid (BCA) assay kit from Pierce using bovine serum albumin as a standard (BSA). […] The kinetics for CK were previously determined as described. The kinetics for IPK were determined by ATP consumption using a pyruvate kinase (PK) lactate dehydrogenase (LDH) coupled assay (FIGS. 16A & 16B). […] NADH was made fresh each time and the appropriate concentration was determined by constructing a standard curve using a SpectraMax M3 and selecting the highest value in the linear range. […]

[4] = system: Geranylgeranyl pyrophosphate synthase (GGPPS); conditions: reported elsewhere (Hefner et al., 1998); cited from earlier work
[5] = target: T2, choline kinase from Saccharomyces cerevisiae (ScCK) (Saccharomyces cerevisiae, UniProt P20485); conditions: Table 6, Ref Chatzivasileiou et al., 2018; cited from earlier work
T2 construct: S. cerevisiae (AAA34499.1), codon optimized; made in house; host or cells: E. coli BL21 (DE3)
T2 sequence (P20485 1-582): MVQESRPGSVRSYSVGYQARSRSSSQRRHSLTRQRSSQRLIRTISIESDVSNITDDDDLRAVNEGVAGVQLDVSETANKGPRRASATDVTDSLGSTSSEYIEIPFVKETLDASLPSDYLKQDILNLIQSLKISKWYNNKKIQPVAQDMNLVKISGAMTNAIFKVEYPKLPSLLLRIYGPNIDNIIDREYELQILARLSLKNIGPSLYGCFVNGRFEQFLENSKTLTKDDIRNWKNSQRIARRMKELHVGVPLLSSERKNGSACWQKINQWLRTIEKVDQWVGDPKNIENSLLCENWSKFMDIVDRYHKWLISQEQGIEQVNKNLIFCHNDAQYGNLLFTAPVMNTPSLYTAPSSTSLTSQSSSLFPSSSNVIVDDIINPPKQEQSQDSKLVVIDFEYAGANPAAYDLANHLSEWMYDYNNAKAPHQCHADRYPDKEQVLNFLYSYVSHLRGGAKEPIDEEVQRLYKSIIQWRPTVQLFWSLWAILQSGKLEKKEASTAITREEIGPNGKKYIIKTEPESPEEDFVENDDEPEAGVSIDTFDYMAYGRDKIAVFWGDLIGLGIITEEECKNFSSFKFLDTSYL

[6] = substrate: C=C(C)CCO; assay: In vitro kinetic assay of purified choline kinase with isoprenol or prenol (LC-MS/MS); format: biochemical, Saccharomyces cerevisiae; conditions: other: 37° C., fixed ATP concentration, purified ScCK, pH 7.5
Method: (§1) Enzyme assays for screening of isopentenol kinase activity was performed as follows. The purified enzymes were added to the enzyme assay master mix for a final concentration of 2 mM ATP, 10 mM MgCl2, 50 mM NH4HCO3 pH 7.5, and 600 μM isoprenol or prenol. They were incubated overnight at 37° C. The reactions were stopped using 5 volumes of ice-cold acetonitrile and centrifuged to remove precipitated proteins using a plate adaptor at 3273×g for 15 min. The supernatant was transferred to a new microplate and frozen at −80° C. The liquid was removed by a 4.5 L lyophilizer (Labconco) and the samples were resuspended in an equal volume of water and centrifuged again prior to quantification using LC-MS/MS.
(§2) Kinetic enzyme assays were conducted using the standard assay conditions described above with the following changes. First, the linear range of the assay was determined over a 90 min period (FIG. 3). Initial velocity appeared linear over this period. Therefore, kinetic assays were quenched after 30 min. For assays at different temperatures, the standard reaction mixture was used while the temperature was varied using a water bath. […] Afterwards, reactions were performed in the standard reaction mixture with NH4HCO3 buffer was adjusted to the appropriate pH. For Michaelis-Menten kinetics, only the concentration of isoprenol or prenol was varied between 1.5-50 μM.

[7] = substrate: CC(C)=CCO; assay: as above; format: biochemical, Saccharomyces cerevisiae; conditions: other: 37° C., fixed ATP concentration, purified ScCK, pH 7.5
Method: as §1, §2

Molecule: Nc1ncnc2c1ncn2[C@@H]1O[C@H](COP(=O)(O)OP(=O)(O)O)[C@@H](O)[C@H]1O [ADP, adenosine diphosphate]
effect on taxadiene production ([1]; ADP 0-20 mM in the presence of 10 mM ATP): Some inhibition

Molecule: Nc1ncnc2c1ncn2[C@@H]1O[C@H](COP(=O)(O)OP(=O)(O)OP(=O)(O)O)[C@@H](O)[C@H]1O [ATP, adenosine triphosphate]
effect on taxadiene production ([1]; 20 mM ATP): completely inhibited
ATP levels that completely inhibited IspA ([2]; Chen et al. (2017)): above 5 mM

Km [3]: 35.5 µM
kcat [3]: 53.1 S^−1
Molecule: CC(C)=CCOP(=O)(O)O [DMAP, dimethylallyl monophosphate]

Molecule: CC(C)=CCOP(=O)(O)OP(=O)(O)O [DMAPP, dimethylallyl pyrophosphate]
Km ([2]; reaction IPP + DMAPP): 1.3 µM

Molecule: CC(C)=CCC/C(C)=C/CC/C(C)=C/COP(=O)(O)OP(=O)(O)O [FPP, farnesyl diphosphate]
Km [4]: 7 µM

Molecule: CC(C)=CCC/C(C)=C/COP(=O)(O)OP(=O)(O)O [GPP, geranyl diphosphate]
Km ([2]; reaction IPP + GPP): 10.3 µM

Molecule: C=C(C)CCO [Isoprenol, 3-methyl-3-buten-1-ol]
Km [5]: 4.54 mM
kcat [5]: 14.7 S^−1

Molecule: CC(C)=CCO [Prenol, 3-methyl-2-buten-1-ol]
Km [5]: 1.11 mM
kcat [5]: 1.13 S^−1

B1: choline kinase from Saccharomyces cerevisiae (ScCK) (Saccharomyces cerevisiae S288C) (protein)
chain: T2 sequence (P20485 1-582)
notes: S. cerevisiae (AAA34499.1), codon optimized; made in house; host or cells: E. coli BL21 (DE3)
Km [6]: 4.539 mM
kcat [6]: 14.7 s⁻¹
Km [7]: 1113 µM
kcat [7]: 1.1 s⁻¹
